Data set [1] addresses T1, Albumin (Homo sapiens, UniProt P02768). The experiment in a line: Binding affinity to human serum albumin at protein to compound molar ratio of 1:1 by fluorescence spectroscopy. The class given is ADME. The note with it: isolated protein.
The target of data set [2] is T1, Albumin. The experiment in a line: Binding affinity to human serum albumin assessed as distance between the acceptor and donor by FRET assay. The note with it: isolated protein. It is filed as ADME.
Data set [3] addresses T1, Albumin. Put plainly: Binding affinity to human serum albumin assessed as quenching of intrinsic fluorescence at 2.5 to 15 uM and 298 K by fluorescence spectroscopy. The class given is ADME. The note with it: isolated protein, dose 2.5-15 µM.
Data set [4] deals with T1, Albumin. Put plainly: Binding affinity to human serum albumin assessed as critical distance with 50% energy transfer between protein and compound by FRET assay. It is filed as ADME. The following applies: isolated protein.
Data set [5] deals with T1, Albumin. The experiment in a line: Binding affinity to human serum albumin assessed as binding constant. The class given is ADME. The following applies: isolated protein.
In data set [6] the test system is Mycobacterium tuberculosis. The experiment in a line: Antitubercular activity against Mycobacterium tuberculosis H37Rv assessed as bacterial growth inhibition incubated for 28 days by agar dilution method. It is filed as functional. The following applies: 672 h, time 28 day. A general note: In agar dilution the substance is mixed into plates at graded concentrations.

The subject of another data set is Vero. The experiment in a line: Cytotoxicity against African green monkey Vero cells assessed as reduction in cell viability measured after 72 hrs by MTT assay. It is filed as cell-based. The note with it: Chlorocebus sabaeus. A general note: Tetrazolium assays rely on reduction of a dye to a coloured formazan, in cell work by metabolically active cells.
In data set [7] the target is T1, Albumin. Put plainly: Binding affinity to human serum albumin assessed as quenching constant. The class given is ADME. The note with it: isolated protein.
In data set [8] the target is T1, Albumin. The experiment in a line: Binding affinity to human serum albumin assessed as Stem-Volmer quenching constant. The class given is ADME. The note with it: isolated protein.

Each structure is given as a SMILES string. ≈ marks a conversion by molar mass, not a printed value.

The term MIC denotes the lowest concentration that inhibits growth of the organism. As a reminder, the IC50 is the concentration at which inhibition is half-maximal.

T1 sequence (P02768 whole entry): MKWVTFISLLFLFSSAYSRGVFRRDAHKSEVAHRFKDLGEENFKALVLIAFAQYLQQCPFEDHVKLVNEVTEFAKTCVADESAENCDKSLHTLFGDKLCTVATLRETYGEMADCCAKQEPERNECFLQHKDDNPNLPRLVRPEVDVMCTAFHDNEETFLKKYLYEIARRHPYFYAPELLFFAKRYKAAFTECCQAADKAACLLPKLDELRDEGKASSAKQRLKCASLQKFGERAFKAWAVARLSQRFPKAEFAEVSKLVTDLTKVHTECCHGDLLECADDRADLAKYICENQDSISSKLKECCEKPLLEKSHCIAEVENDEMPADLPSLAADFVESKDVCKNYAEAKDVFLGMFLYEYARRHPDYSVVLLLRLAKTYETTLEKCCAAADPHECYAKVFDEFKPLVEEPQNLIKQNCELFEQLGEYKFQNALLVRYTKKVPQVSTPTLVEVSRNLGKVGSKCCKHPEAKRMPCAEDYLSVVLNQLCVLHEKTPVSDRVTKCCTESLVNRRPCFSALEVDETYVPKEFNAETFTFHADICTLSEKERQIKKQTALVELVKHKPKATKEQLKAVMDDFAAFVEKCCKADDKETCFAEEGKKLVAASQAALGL

`NC(=O)c1ccc(-n2cc(CNC(=O)c3c[nH]c(-c4ccccc4)n3)nn2)cc1`: the Activity entry at Albumin [1] was “Active”; at Albumin [2], 2.09 nm; at Albumin [3], “Active”; at Albumin [4], 1.49 nm. Besides, the Kb on Albumin [5] is 2.58 10^3L/mol. In addition, the minimal inhibitory concentration (MIC) in data set [6] is 1.47 µM (≈ 0.569 µg/mL). Also, the concentration for half-maximal inhibition (IC50) in the data set with Vero was found to be 198 µM. Further, the Kq on Albumin [7] was 8.36 10^12L/mol/s. Moreover, the KSV at Albumin [8] is recorded as 5.02 10^4L/mol.

Consider `COc1ccc(-n2cc(CNC(=O)c3c[nH]c(-c4ccccc4)n3)nn2)cc1`, for which the MIC in data set [6] came out at 10.6 µM (≈ 3.98 µg/mL). Further, the half-inhibitory concentration (IC50) in the data set with Vero worked out at 388 µM.

In the case of `O=C(NCc1cn(-c2ccc(O)cc2)nn1)c1c[nH]c(-c2ccccc2)n1`, the MIC in data set [6] was determined as 5.19 µM (≈ 1.87 µg/mL). Also, the IC50 in the data set on Vero worked out at 281 µM.

With `Nc1ccc(-n2cc(CNC(=O)c3c[nH]c(-c4ccccc4)n3)nn2)cc1`, the Activity result is “Active” on Albumin [1], 2.36 nm at Albumin [2], “Active” on Albumin [3] and 1.81 nm at Albumin [4]. On Albumin [5], the Kb is given as 2.16 10^3L/mol. In data set [6], the MIC came to 2.03 µM (≈ 0.73 µg/mL). Moreover, the half-maximal inhibitory concentration (IC50) in the data set on Vero was 237 µM. For the same compound, at Albumin [7], the Kq is given as 8.11 10^12L/mol/s. In addition, at Albumin [8], the KSV is given as 4.38 10^4L/mol.

For the compound `Cc1ccc(-n2cc(CNC(=O)c3c[nH]c(-c4ccccc4)n3)nn2)cc1`, the MIC in [6] was 19.5 µM (≈ 6.97 µg/mL). The half-inhibitory concentration (IC50) with Vero turned out to be 409 µM.

Consider `NNC(=O)c1ccncc1` [ISONIAZID], for which, in [6], the minimum inhibitory concentration (MIC) was found to be 0.36 µM (≈ 0.0494 µg/mL). Further, the IC50 in the data set with Vero is more than 456 µM.

For the origin of these results see ChEMBL document CHEMBL4706667, “Click synthesis of 1,2,3-triazole based imidazoles: Antitubercular evaluation, molecular docking and HSA binding studies” (Bioorg Med Chem Lett, 2021).
